Measurements: ChEMBL document CHEMBL1123432, “Methotrexate analogues. 28. Synthesis and biological evaluation of new gamma-monoamides of aminopterin and methotrexate” (J Med Chem, 1986)
pIC50: −log10 of the molar value. Values joined by “and” are separate entries in the source; they are usually repeats but may differ in a detail not shown here. Identical values can stand only once.

How the values were obtained:
Homo sapiens [1] = organism: Homo sapiens; assay: Compound was tested for its inhibitory concentration against human leukemic lymphoblasts (CEM Cells); type: functional; settings: CCRF-CEM
Homo sapiens [2] = organism: Homo sapiens; assay: Compound was tested for its inhibitory concentration against human leukemic lymphoblasts (CEM Cells) and a resistant subline (CEM / MTX).; type: functional; settings: CCRF-CEM
L1210 [3] = assay: cells; settings: Mus musculus
Description: Compound was tested for its inhibitory concentration to inhibit the growth of wild type L1210 cells; Range=0.01 to 0.03

Mus musculus [4] = assay: Increase in life span of mice with L1210 leukemia cells at a dose of 80 mg/kg; type: functional
Mus musculus [5] = assay: Median Survival days of mice infected with L1210 leukemia cells at dose 80 mg/kg relative to that of 9 days for control; type: functional
Mus musculus [6] = organism: Mus musculus; assay: Compound was tested against weight change in mice with L1210 leukemia cells on 10 th Day at Dose 40 mg / kg; settings: at 40 mg/kg
Mus musculus [7] = assay: Increase in life span of mice with L1210 leukemia cells at a dose of 20 mg/kg; type: functional
L1210 [8] = assay: Compound was tested for its inhibitory concentration to inhibit the growth of wild type L1210 cells.; type: functional, cell-based, Mus musculus
Mus musculus [9] = assay: Median Survival days of mice infected with L1210 leukemia cells at dose 20 mg/kg relative to that of 9 days for control; type: functional
L1210 [10] = assay: Compound was tested for its inhibitory concentration to inhibit the growth of wild type L1210 cells; type: functional, cell-based; settings: Mus musculus
Mus musculus [11] = assay: Increase in life span of mice with L1210 leukemia cells at a dose of 40 mg/kg; type: functional
Homo sapiens [12] = organism: Homo sapiens; assay: Compound was tested for its inhibitory concentration against human leukemic lymphoblasts (CEM Cells); Mean of two assays; type: functional; settings: CCRF-CEM
Mus musculus [13] = organism: Mus musculus; assay: Compound was tested against weight change in mice with L1210 leukemia cells on 10 th Day at Dose 80 mg / kg; settings: at 80 mg/kg
Mus musculus [14] = assay: Median Survival days of mice infected with L1210 leukemia cells at dose 40 mg/kg relative to that of 9 days for control; type: functional
Mus musculus [15] = organism: Mus musculus; assay: Compound was tested against weight change in mice with L1210 leukemia cells on 10 th Day at Dose 20 mg / kg; settings: at 20 mg/kg
[16] = molecular target: T1, Dihydrofolate reductase (Mus musculus) (UniProt P00375); settings: L1210
T1 sequence (whole entry): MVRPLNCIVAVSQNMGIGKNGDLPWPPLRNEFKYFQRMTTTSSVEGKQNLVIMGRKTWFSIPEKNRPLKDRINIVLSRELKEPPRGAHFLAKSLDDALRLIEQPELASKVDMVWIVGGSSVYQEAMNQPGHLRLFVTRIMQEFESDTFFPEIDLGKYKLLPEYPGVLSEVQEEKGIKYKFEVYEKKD
Description: Compound was tested for inhibition of the enzyme DiHydroFolate Reductase (DHFR) from murine L1210 leukemia cells

L1210 [17] = assay: Compound was tested for its inhibitory concentration to inhibit the growth of wild type L1210 cells and a subline (L1210 / R81); Mean of two assays; type: functional, cell-based; settings: Mus musculus
Dihydrofolate reductase = molecular target: T2, Dihydrofolate reductase (Mus musculus, UniProt P00375); assay: biochemical
T2 sequence (P00375 whole entry): T1 sequence (whole entry)
Description: Compound was tested for its inhibitory concentration to inhibit the enzyme Dihydro Folate Reductase (DHFR) from murine L1210 leukemia cells.

Mus musculus [18] = assay: Median Survival days of mice infected with L1210 leukemia cells at dose 10 mg/kg relative to that of 9 days for control in expt 1; type: functional
Mus musculus [19] = assay: Increase in life span of mice with L1210 leukemia cells at a dose of 10 mg/kg in exp 2; type: functional
Mus musculus [20] = organism: Mus musculus; assay: Compound was tested against weight change in mice with L1210 leukemia cells on 7 th Day at Dose 10 mg / kg; type: functional; settings: at 10 mg/kg
Mus musculus [21] = assay: Median Survival days of mice infected with L1210 leukemia cells at dose 10 mg/kg relative to that of 10 days for control in expt 2; type: functional
L1210 [22] = assay: Compound was tested for its inhibitory concentration to inhibit the growth of wild type L1210 cells and a subline (L1210 / R81).; type: functional, cell-based; settings: Mus musculus
Mus musculus [23] = assay: Median Survival days of mice infected with L1210 leukemia cells at dose 15 mg/kg relative to that of 10 days for control in expt 2; type: functional
Mus musculus [24] = assay: Increase in life span of mice with L1210 leukemia cells at a dose of 15 mg/kg in exp 2; type: functional
Mus musculus [25] = assay: Median Survival days of mice infected with L1210 leukemia cells at dose 20 mg/kg relative to that of 9 days for control in expt 1; type: functional
Mus musculus [26] = assay: Median Survival days of mice infected with L1210 leukemia cells at dose 7.5 mg/kg relative to that of 10 days for control in expt 2; type: functional
Mus musculus [27] = organism: Mus musculus; assay: Compound was tested against weight change in mice with L1210 leukemia cells on 10 th Day at Dose 7.5 mg / kg; settings: at 7.5 mg/kg
Mus musculus [28] = assay: Increase in life span of mice with L1210 leukemia cells at a dose of 7.5 mg/kg in exp 2; type: functional
Homo sapiens [29] = organism: Homo sapiens; assay: Compound was tested for its inhibitory concentration against human leukemic lymphoblasts (CEM Cells) and a resistant subline (CEM / MTX); Mean of two assays; type: functional; settings: CCRF-CEM
Mus musculus [30] = organism: Mus musculus; assay: Compound was tested against weight change in mice with L1210 leukemia cells on 7 th Day at Dose 15 mg / kg; type: functional; settings: at 15 mg/kg
Mus musculus [31] = assay: Median Survival days of mice infected with L1210 leukemia cells at dose 40 mg/kg relative to that of 9 days for control in expt 1; type: functional
Mus musculus [32] = assay: Median Survival days of mice infected with L1210 leukemia cells at dose 80 mg/kg relative to that of 9 days for control in expt 2; type: functional
Mus musculus [33] = assay: Median Survival days of mice infected with L1210 leukemia cells at dose 100 mg/kg relative to that of 9 days for control in expt 2; type: functional
Mus musculus [34] = assay: Median Survival days of mice infected with L1210 leukemia cells at dose 80 mg/kg relative to that of 9 days for control in expt 1; type: functional
Mus musculus [35] = organism: Mus musculus; assay: Compound was tested against weight change in mice with L1210 leukemia cells on 7 th Day at Dose 100 mg / kg; type: functional; settings: at 100 mg/kg
Mus musculus [36] = assay: Increase in life span of mice with L1210 leukemia cells at a dose of 40 mg/kg in exp 1; type: functional
Mus musculus [37] = assay: Increase in life span of mice with L1210 leukemia cells at a dose of 100 mg/kg; type: functional
Mus musculus [38] = assay: Increase in life span of mice with L1210 leukemia cells at a dose of 80 mg/kg in exp 1; type: functional
Mus musculus [39] = assay: Increase in life span of mice with L1210 leukemia cells at a dose of 100 mg/kg in expt 1; type: functional
Mus musculus [40] = assay: Increase in life span of mice with L1210 leukemia cells at a dose of 40 mg/kg in expt 1; type: functional
Mus musculus [41] = assay: Median Survival days of mice infected with L1210 leukemia cells at dose 60 mg/kg relative to that of 9 days for control in expt 2; type: functional
Mus musculus [42] = assay: Increase in life span of mice with L1210 leukemia cells at a dose of 60 mg/kg in expt 1; type: functional
Mus musculus [43] = assay: Increase in life span of mice with L1210 leukemia cells at a dose of 80 mg/kg in expt 1; type: functional
Mus musculus [44] = organism: Mus musculus; assay: Compound was tested against weight change in mice with L1210 leukemia cells on 10 th Day at Dose 60 mg / kg; settings: at 60 mg/kg

Row | SMILES | pIC50 (Homo sapiens [2]) | ILS at 80 mg/kg (Mus musculus [4]) | Weight change (Mus musculus [6]) | pIC50 (L1210 [8]; Mus musculus, L1210) | pIC50 (Homo sapiens [12]) | Weight change (Mus musculus [13]) | Weight change (Mus musculus [15]) | IC50/[E] [16] | pIC50 (Dihydrofolate reductase) | pIC50 (L1210 [22]) | pIC50 (L1210 [8]; l1210) | Survival (Mus musculus [25]) | Survival (Mus musculus [31]) | Survival (Mus musculus [32]) | Survival (Mus musculus [33]) | Survival (Mus musculus [34]) | Weight change (Mus musculus [35]) | other results
1 | CN(Cc1cnc2nc(N)nc(N)c2n1)c1ccc(C(=O)N[C@@H](CCC(=O)O)C(=O)O)cc1 [METHOTREXATE] | 5.18 | – | – | – | – | – | – | – | – | – | – | – | – | – | – | – | – | pIC50 (Homo sapiens [1]): 7.49; pIC50 (L1210 [3]): 7.52
2 | CC(C)(C)NC(=O)CCC(NC(=O)c1ccc(NCc2cnc3nc(N)nc(N)c3n2)cc1)C(=O)O (stereo not drawn) | 4.44 | 22% | 7% | 6.92 | 5.24 | 9% | 17% | 1.1 | 7.36 | – | – | – | – | – | – | – | – | Survival (Mus musculus [5]): 11 days; ILS at 20 mg/kg (Mus musculus [7]): 0%; Survival (Mus musculus [9]): 9 days; pIC50 (L1210 [10]): 7.49; ILS at 40 mg/kg (Mus musculus [11]): 11%; Survival (Mus musculus [14]): 10 days; pIC50 (L1210 [17]): 4.66
3 | Nc1nc(N)c2nc(CNc3ccc(C(=O)NC(CCC(=O)Nc4ccccc4)C(=O)O)cc3)cnc2n1 (stereo not drawn) | – | – | – | 8.46 | 6.74 | – | 0% | 1.5 | 7.22 | 5.00 | 8.44 | 12 days | – | – | – | – | – | Survival (Mus musculus [18]): 12 days; ILS at 10 mg/kg (Mus musculus [19]): 50%; Weight change (Mus musculus [20]): 17% and 6%; Survival (Mus musculus [21]): 15 days; Survival (Mus musculus [23]): 13 days; ILS at 15 mg/kg (Mus musculus [24]): 30%; Survival (Mus musculus [26]): 13 days; Weight change (Mus musculus [27]): 4%; ILS at 7.5 mg/kg (Mus musculus [28]): 30%; pIC50 (Homo sapiens [29]): 5.33; Weight change (Mus musculus [30]): 2%
4 | Nc1nc(N)c2nc(CNc3ccc(C(=O)NC(CCC(=O)NCc4c(Cl)cccc4Cl)C(=O)O)cc3)cnc2n1 (stereo not drawn) | – | 44% | 6% | 8.43 | – | 3% and 9% | – | 2 | 7.10 | 4.21 | 8.70 | – | 13 days | 13 days | 15 days | 14 days | -3% | ILS at 40 mg/kg (Mus musculus [36]): 56%; ILS at 100 mg/kg (Mus musculus [37]): 67%; ILS at 80 mg/kg (Mus musculus [38]): 44%
5 | CN(Cc1cnc2nc(N)nc(N)c2n1)c1ccc(C(=O)NC(CCC(=O)Nc2ccc3c(c2)OCO3)C(=O)O)cc1 (stereo not drawn) | – | – | 10% | 8.54 | – | 6% and -5% | 11% | 1.1 | 7.38 | 4.60 | – | 11 days | 13 days | 16 days | 16 days | 15 days | 1% | ILS at 100 mg/kg (Mus musculus [39]): 78%; ILS at 40 mg/kg (Mus musculus [40]): 78%; Survival (Mus musculus [41]): 14 days; ILS at 60 mg/kg (Mus musculus [42]): 56%; ILS at 80 mg/kg (Mus musculus [43]): 67%; Weight change (Mus musculus [44]): 3%
